Consider 24 compounds from patent publication US4769386A, “Imidazolylthioalkenoic acids and -alkenols and leukotriene antagonistic composition containing them” (Smithkline Beckman Corporation, priority 1986, dated 1988).

SMILES strings stand for the structures. Structures can show the parent of a compound that is named as a salt.

The first test concerns the target T1, leukotriene induced contraction of guinea pig tracheal tissues (LTD4) (Cavia porcellus, UniProt Q2NNR5).
T1 construct: from tissue; host or cells: guinea pig (adult male albino Hartley strain) tracheal spiral strips
T1 sequence (Q2NNR5 1-340): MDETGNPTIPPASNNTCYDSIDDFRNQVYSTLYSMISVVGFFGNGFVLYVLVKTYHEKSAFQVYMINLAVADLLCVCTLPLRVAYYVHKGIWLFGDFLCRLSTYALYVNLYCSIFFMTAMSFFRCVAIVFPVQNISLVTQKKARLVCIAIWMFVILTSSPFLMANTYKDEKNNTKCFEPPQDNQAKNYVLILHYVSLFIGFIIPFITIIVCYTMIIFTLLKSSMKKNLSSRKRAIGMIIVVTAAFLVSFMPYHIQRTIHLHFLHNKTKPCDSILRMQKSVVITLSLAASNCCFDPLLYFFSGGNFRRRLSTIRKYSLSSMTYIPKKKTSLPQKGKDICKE
Kind of test: leukotriene (LTD4) induced contraction of guinea pig tracheal spiral strips in vitro, leukotriene antagonist activity. The conditions noted are these: antagonism of LTD4 contraction, guinea pig trachea; EC30 based (30% of carbachol contraction); meclofenamic acid 1 μM; test compound 30 min pretreatment; KB = concentration of test compound/(X-1); 30 min. In kind it is cell-based, guinea pig (adult male albino Hartley strain). The procedure:
The leukotriene antagonist activity of the compounds of this invention is measured by the ability of the compounds to inhibit the leukotriene induced contraction of guinea pig tracheal tissues in vitro. The following methodology was employed:
In vitro: Guinea pig (adult male albino Hartley strain) tracheal spiral strips of approximate dimensions 2 to 3 mm cross-sectional width and 3.5 cm length were bathed in modified Krebs buffer in jacketed 10 ml tissue bath and continuously aerated with 95% O2 /5% CO2. The tissues were connected via silk suture to force displacement transducers for recording isometric tension. The tissues were equilibrated for 1 hr., pretreated for 15 minutes with meclofenamic acid (1 μM) to remove intrinsic prostaglandin responses, and then pretreated for an additional 30 minutes with either the test compound or vehicle control. A cumulative concentration-response curve for LTD4 on triplicate tissues was generated by successive increases in the bath concentration of the LTD4. In order to minimize intertissue variability, the contractions elicited by LTD4 were standardized as a percentage of the maximum response obtained to a reference agonist, carbachol […].
Calculations: The averages of the triplicate LTD4 concentration-response curves both in the presence and absence of the test compound were plotted on log graph paper. The concentration of LTD4 needed to elicit 30% of the contraction elicited by carbachol was measured and defined as the EC30. The -log KB value for the test compound was determined by the following equations:
2. KB = concentration of test compound/(X-1)
With `CCCCCCCCCCCC/C=C\C(Sc1nc(C)c(C(=O)O)n1C)C(O)CCC(=O)O` (single isomer, unassigned) [Formula (III), R1 ^(a) CH3, R2 --CO2 H, R3 CH3 (second isomer line), 4-Hydroxy-5-(1,4-dimethyl-5-carboxy-2-imidazolylthio)-6(Z)-nonadecenoic acid], the “In Vitro -Log KB” value is reported as 6.8.
On the same count and under the same terms, as for `CCCCCCCCCCCC/C=C\C(Sc1nc(C)c(C(=O)O)n1C)C(O)CCC(=O)O` (single isomer, unassigned) [Formula (III), R1 ^(a) CH3, R2 --CO2 H, R3 CH3 (first isomer line), 4-Hydroxy-5-(1,4-dimethyl-5-carboxy-2-imidazolylthio)-6(Z)-nonadecenoic acid], the figure is 6.9.

Staying with this test, now noted: antagonism of LTD4 contraction, guinea pig trachea; EC30 based (30% of carbachol contraction); meclofenamic acid 1 μM; test compound 30 min pretreatment; KB = concentration of test compound/(X-1); read-out: In Vitro -Log KB (converted).
On to `CCCCCCCCCCCC/C=C\[C@H](Sc1nc(C(C)C)c(C(=O)O)n1C)[C@H](O)CCC(=O)O` (relative stereo) [4-Hydroxy-5-(5-carboxy-4-isopropyl-1-methyl-2-imidazolylthio)-6(Z)-nonadecenoic Acid], for which the Kb (as a rule, the equilibrium dissociation constant of an antagonist, usually derived from a functional assay) was 1.26 µM.
The same measure, in the same setting: the result for `CCCCCCCCCCCC/C=C\[C@H](Sc1nccn1C)[C@H](O)CCC(=O)O` (relative stereo) [Formula (III), R1 CH3, R2 H, R3 H, 4-Hydroxy-5-(1-methyl-2-imidazolylthio)-6(Z)-nonadecenoic acid] reads 1.26 µM; that for `CCCCCCCCCCCC/C=C\[C@H](Sc1nc(C)c(CC(N)=O)n1C)[C@H](O)CCC(=O)O` (relative stereo) [4-Hydroxy-5-(5-Aminocarbonylmethyl-1,4-dimethyl-2-imidazolylthio)-6(Z)-nonadecenoic Acid], 0.631 µM; that for `CCCCCCCCCCCC/C=C\[C@H](Sc1nc(CC)c(C(=O)O)n1C)[C@H](O)CCC(=O)O` (relative stereo) [4-Hydroxy-5-(5-carboxy-4-ethyl-1-methyl-2-imidazolylthio)-6-(Z)-nonadecenoic Acid], 0.2 µM.
Still for that read-out and setting: the result for `CCCCCCCCCCCC/C=C\[C@H](Sc1nccn1C)[C@H](O)CCCC(=O)O` (relative stereo) [Formula (IV), R1 CH3, R2 H, R3 H, 5-Hydroxy-6-(1-methyl-2-imidazolylthio)-7(Z)-eicosenoic acid] reads 1 µM; that for `CCCCCCCCCCCCC#CC(Sc1nc(C)c(C(=O)O)n1C)C(O)CCC(=O)O` (stereo not drawn) [4-Hydroxy-5-(1,4-dimethyl-5-carboxy-2-imidazolylthio)-6-nonadecynoic acid], 1.58 µM; that for `CCCCCCCCCCCC/C=C\[C@H](Sc1nc(C)c(CCC(=O)O)n1C)[C@H](O)CCC(=O)O` (relative stereo) [4-Hydroxy-5-[5-(2-carboxyethyl)-1,4-dimethyl-2-imidazolylthio]-6(Z)-nonadecenoic Acid], 1.26 µM.
On the same count and under the same terms, as for `CCCCCCCCCCCC/C=C\[C@H](Sc1nccn1CC)[C@H](O)CCC(=O)O` (relative stereo) [Formula (III), R1 CH3 CH2, R2 H, R3 H, 4-Hydroxy-5-(1-ethyl-2-imidazolylthio)-6(Z)-nonadecenoic acid, sodium salt], the figure is 5.01 µM; as for `CCCCCCCCCCCC/C=C\[C@H](Sc1ncc(C(=O)O)n1C)[C@H](O)CCC(=O)O` (relative stereo) [Formula (III), R1 CH3, R2 --CO2 H, R3 H, 4-Hydroxy-5-(1-methyl-5-carboxy-2-imidazolylthio)-6(Z)-nonadecenoic acid], 0.158 µM; as for `CCCCCCCCCCCC/C=C\[C@H](Sc1ncc(C(N)=O)n1C)[C@H](O)CCC(=O)O` (relative stereo) [Formula (III), R1 CH3, R2 --CONH2, R3 H, 4-Hydroxy-5-(1-methyl-5-carboxamido-2-imidazolylthio)-6(Z)-nonadecenoic acid], 3.98 µM.
Regarding `C=CCn1ccnc1S[C@@H](/C=C\CCCCCCCCCCCC)[C@H](O)CCC(=O)O` (relative stereo) [Formula (III), R1 CH2 =CHCH2, R2 H, R3 H, 4-Hydroxy-5-(1-allyl-2-imidazolylthio)-6(Z)-nonadecenoic acid], the Kb was 5.01 µM.
As for `CCCCCCCCCCCC/C=C\C(Sc1cn(C)cn1)C(O)CCC(=O)O` (stereo not drawn) [Formula (V), R4 ^(b) CH3, R5 H, R6 H, 4-Hydroxy-5-(1-methyl-4-imidazolylthio)-6(Z)-nonadecenoic acid, sodium salt], the Kb is 2 µM.
Same read-out and setting: as for `CCCCCCCCCCCC/C=C\[C@H](Sc1nc(C)c(CC(=O)O)n1C)[C@H](O)CCC(=O)O` (relative stereo) [4-Hydroxy-5-(5-carboxymethyl-1,4-dimethyl-2-imidazolylthio)-6(Z)-nonadecenoic Acid], the figure is 0.398 µM; as for `CCCCCCCCCCCC/C=C\C(Sc1ncn(C)c1C(=O)O)C(O)CCC(=O)O` (stereo not drawn) [Formula (V), R4 CH3, R5 H, R6 --CO2 H, 4-Hydroxy-5-(1-methyl-5-carboxy-4-imidazolylthio)-6(Z)-nonadecenoic acid], 0.2 µM; as for `CCCCCCCCCCCC/C=C\[C@H](Sc1nc(C)c(C(=O)O)n1C)[C@H](O)CCC(=O)O` (relative stereo) [4-Hydroxy-5-(1,4-dimethyl-5-carboxy-2-imidazolylthio)-6(Z)-nonadecenoic acid], 0.126 µM.
For the compound `CCCCCCCCCCCC/C=C\[C@H](Sc1nc(C)c(C)n1C)[C@H](O)CCC(=O)O` (relative stereo) [Formula (III), R1 CH3, R2 CH3, R3 CH3, 4-Hydroxy-5-(1,4,5-trimethyl-2-imidazolylthio)-6(Z)-nonadecenoic acid], the Kb is 2.51 µM.
Same read-out and setting: the result for `CCCCCCCCCCCC/C=C\[C@H](Sc1nc(C(=O)O)c[nH]1)[C@H](O)CCC(=O)O` (relative stereo) [Formula (III), R1 H, R2 --CO2 H, R3 H, 4-Hydroxy-5-[4(5)-carboxy-2-imidazolylthio]-6(Z)-nonadecenoate acid] reads 2 µM; that for `CCCCCCCCCCCC/C=C\[C@H](Sc1nc(CC(=O)O)cn1C)[C@H](O)CCC(=O)O` (relative stereo) [4-Hydroxy-5-(1-methyl-4-carboxymethyl-2-imidazolylthio)-6(Z)-nonadecenoic acid], 0.794 µM.
`CCCCCCCCCCCC/C=C\[C@H](Sc1nc(CCC)c(C(=O)O)n1C)[C@H](O)CCC(=O)O` (relative stereo) [4-Hydroxy-5-(5-carboxy-1-methyl-4-propyl-2-imidazolylthio)-6(Z)-nonadecenoic Acid]: the Kb is 0.316 µM.
On the same count and under the same terms, as for `CCCCCCCCCCCC/C=C\C(CCCC(=O)O)Sc1ncc(C(=O)O)n1C` (stereo not drawn) [5-(1-methyl-5-carboxy-2-imidazolylthio)-6(Z)-nonadecenoic acid], the figure is 0.316 µM.

The same test, now with this note: method as for the table (LTD4, guinea pig trachea); read-out: -log KB value (converted).
On to `Cc1nc(SC(/C=C\CCCCCCCCc2ccccc2)C(O)CCC(=O)O)n(C)c1C(=O)O` (stereo not drawn) [Example 26, 4-Hydroxy-5-(5-carboxy-1,4-dimethyl-2-imidazolylthio)-15-phenyl-6(Z)-pentadecenoic Acid], for which the Kb was 0.251 µM.
As for `CC(C)=CCCCCCCCCC/C=C\C(Sc1nc(C)c(C(=O)O)n1C)C(O)CCC(=O)O` (stereo not drawn) [Example 25, 4-Hydroxy-5-(5-carboxy-1,4-dimethyl-2-imidazolylthio)-18-methyl-6(Z),17-nonadecadienoic Acid], the Kb is 0.0316 µM.
